From PMC3914206

Key:
panel of 442 kinases [1] = target: T1, panel of 442 kinases (Homo sapiens, UniProt Q14289); assay type: binding; details: Compound Concentration 10 µM
T1 construct: purchased KINOMEscan
Text: (§1) We assessed the selectivity of members of this scaffold using the KINOMEscan methodology across a near comprehensive panel of 442 kinases [[18,27]].

panel of 442 kinases [2] = target: T2, panel of 442 kinases (Homo sapiens, UniProt Q13546); assay type: binding; details: Compound Concentration 10 µM
T2 construct: purchased KINOMEscan
T2 sequence (Q13546 1-671): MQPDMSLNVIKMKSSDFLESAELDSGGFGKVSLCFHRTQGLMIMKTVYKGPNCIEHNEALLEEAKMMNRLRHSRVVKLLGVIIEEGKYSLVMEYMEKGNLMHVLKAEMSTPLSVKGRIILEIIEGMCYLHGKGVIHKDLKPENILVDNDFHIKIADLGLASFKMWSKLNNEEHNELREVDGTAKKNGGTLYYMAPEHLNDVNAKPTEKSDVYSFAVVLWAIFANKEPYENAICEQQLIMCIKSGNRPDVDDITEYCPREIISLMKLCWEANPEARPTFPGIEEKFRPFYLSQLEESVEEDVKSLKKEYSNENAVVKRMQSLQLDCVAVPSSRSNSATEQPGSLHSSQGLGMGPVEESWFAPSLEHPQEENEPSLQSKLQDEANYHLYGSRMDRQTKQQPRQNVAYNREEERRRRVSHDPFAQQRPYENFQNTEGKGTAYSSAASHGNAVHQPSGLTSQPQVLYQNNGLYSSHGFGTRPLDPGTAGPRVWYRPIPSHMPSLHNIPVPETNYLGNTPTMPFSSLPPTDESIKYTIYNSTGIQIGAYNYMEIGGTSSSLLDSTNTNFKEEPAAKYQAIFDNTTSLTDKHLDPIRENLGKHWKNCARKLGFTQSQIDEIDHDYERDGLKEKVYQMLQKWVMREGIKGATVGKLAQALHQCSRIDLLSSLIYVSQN
Text: as §1

T1 sequence (Q14289 whole entry): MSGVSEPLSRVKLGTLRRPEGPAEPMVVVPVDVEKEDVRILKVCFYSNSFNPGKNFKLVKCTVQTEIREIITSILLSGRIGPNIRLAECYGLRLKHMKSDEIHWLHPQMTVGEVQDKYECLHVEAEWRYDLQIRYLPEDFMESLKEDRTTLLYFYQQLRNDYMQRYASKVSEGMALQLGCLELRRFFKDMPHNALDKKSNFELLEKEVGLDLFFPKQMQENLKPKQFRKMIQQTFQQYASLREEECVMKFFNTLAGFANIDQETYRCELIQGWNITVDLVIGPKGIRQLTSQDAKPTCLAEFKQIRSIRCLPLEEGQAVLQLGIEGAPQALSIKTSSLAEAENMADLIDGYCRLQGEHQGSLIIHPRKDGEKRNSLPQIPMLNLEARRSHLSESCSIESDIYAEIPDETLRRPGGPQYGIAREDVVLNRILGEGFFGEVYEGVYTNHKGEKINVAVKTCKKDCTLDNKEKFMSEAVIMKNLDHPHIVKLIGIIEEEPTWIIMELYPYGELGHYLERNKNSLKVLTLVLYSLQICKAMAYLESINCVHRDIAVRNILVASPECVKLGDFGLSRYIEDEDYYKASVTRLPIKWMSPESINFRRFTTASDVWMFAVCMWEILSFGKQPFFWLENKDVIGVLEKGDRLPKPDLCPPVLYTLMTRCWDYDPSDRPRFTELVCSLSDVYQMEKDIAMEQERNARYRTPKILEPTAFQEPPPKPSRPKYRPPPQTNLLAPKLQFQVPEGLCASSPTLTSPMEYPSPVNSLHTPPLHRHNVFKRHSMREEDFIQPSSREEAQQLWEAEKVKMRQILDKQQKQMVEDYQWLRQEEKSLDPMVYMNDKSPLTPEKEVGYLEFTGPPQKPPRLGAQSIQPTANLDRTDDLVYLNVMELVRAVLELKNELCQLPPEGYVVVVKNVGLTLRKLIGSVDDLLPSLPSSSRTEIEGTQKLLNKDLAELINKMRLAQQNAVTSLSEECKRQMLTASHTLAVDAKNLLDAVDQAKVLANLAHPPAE

Row | Compound | KINOMEscan: PYK2 (panel of 442 kinases [1]) | KINOMEscan: RIPK1 (panel of 442 kinases [2])
1 | CCOc1cc(C(=O)N2CCC(N3CCN(C)CC3)CC2)ccc1Nc1ncc2c(n1)N(C1CCCC1)c1ccccc1C(=O)N2C [Compound 26] | 43 | 100
2 | COc1cc(C(=O)N2CCC(N3CCN(C)CC3)CC2)ccc1Nc1ncc2c(n1)N(C1CCCC1)c1ccccc1C(=O)N2C [Compound 25, 11-cyclopentyl-2-((2-methoxy-4-(4-(4-methylpiperazin-1-yl)piperidine-1-carbonyl)phenyl)amino)-5-methyl-5H-benzo[e]pyrimido[5,4-b][1,4]diazepin-6(11H)-one] | 17 | 100
3 | COc1cc(C(=O)N2CCC(N3CCN(C)CC3)CC2)ccc1Nc1ncc2c(n1)N1CCc3cccc(c31)C(=O)N2C [Compound 24] | 77 | 76
4 | COc1cc(C(=O)N2CCC(N3CCN(C)CC3)CC2)ccc1Nc1ncc2c(n1)N(C)c1ccccc1C(=O)N2C [15 (LRRK2-IN-1)] | 78 | 99
